Where no end group is shown, it is not given here.
What was measured:
[1] = tested on: mealworm larvae; assay: Mealworm larva paralytic bioassay; type: in vivo
[2] = tested on: MCF 10A non-cancerous breast cell line; assay: Induction of apoptosis (APO-ONE caspase 3/7) and cell viability (CellTiter Blue); type: cell-based, human; set-up: key to Decline in cell viability: cell viability decreased (+); or not (−)
Description: (§1) MCF-10A, MCF-12A were cultured in 50% DMEM plus 50% Ham's F12 modified with 2 mM L-glutamine, 1 mM sodium pyruvate, 0.01 mg/mL bovine insulin, 500 ng/mL hydrocortisone, 50 ug/mL of penicillin and streptomycin. The combined medium was supplemented with 5% (v/v) fetal bovine serum.
(§2) The levels of apoptotic induction and cell viability were determined by multiplexing the measurements for single samples. CellTiter Blue and APO-ONE assay systems from Promega allows the determination of cell viability correlated to cell number, and induction of apoptosis. This protocol uses a fluorgenic peptide that contains a peptide recognition-sequence for caspase 3 and caspase 7, […] proteolytic enzymes of the apoptosis cascade. The CellTiter Blue reagent was added to wells in a 96-well plate containing cells under test, immediately after addition of peptide solution or vehicle. About 5000 cells were plated into the wells the day before. At the chosen time (Day 1, Day 2 etc.) the fluorescence was measured at 590 nm (emission) after excitation at 560 nm. The caspase 3/7 activity was measured (485 nm Ex/527 nm Em) in the same wells after adding 120 uL of the Apo-ONE reagent, freeze fracturing at −80° C. for 1 hr, and incubating for 1 hr at room temperature.
(§3) For this work, the concentrations of SorC13 and SorC27 used were 0 uM, 1 uM, 10 uM and 100 uM. The experiments extended over a 5 to 7 day period. All measurements were done in quadruplicate with both a blank (no cells) and control (vehicle, no peptide) used to correct the test measurements. The time-response data, and the dose-response data were plotted as means±standard error of the mean. Any statistical comparisons were done with the Student's t-test or by ANOVA analysis over the dose course. The level of statistical significance was considered to be the 95% confidence interval (i.e., p≤0.05).

[3] = tested on: MCF 12A non-cancerous breast cell line; assay: as above; type: cell-based, human; set-up: key to Decline in cell viability: cell viability decreased (+); or not (−)
Description: as §1, §2, §3

[4] = tested on: MDA-MB-468 (MB 468) breast cancer cell line; assay: as above; type: cell-based, human
Description: MCF-7, MDA-MB-231, MDA-MB-415, MDA-MB-468 were grown in DMEM modified with 10% (v/v) fetal bovine serum, 2 mM L-glutamine and 50 ug/mL each of penicillin and streptomycin.
as §2, §3

[5] = tested on: OV90 ovarian cancer cell line; assay: as above; type: cell-based, human; set-up: key to Decline in cell viability: decreased (+); or not (−)
Description: OV-90 was cultured in a 1:1 mixture of MCDB 105 medium and Medium 199 supplemented with 15% (v/v) fetal bovine serum.
as §2, §3
To compare the effect of the two SorC-peptides against the gold-standard treatment for ovarian cancers SorC13 or SorC27 was compared to treatment with a carboplatin and taxol (CAT) cocktail (10 uM Paclitaxel, 20 mM carboplatin) using the APO-ONE assay, which measures the combined activities of caspase 3 and caspase 7. Because of the mixed treatment (CAT), the effects were compared in terms of the ratio of treatment:control. If no effect was noted then the ratio=1. Comparisons of the treatment:control ratios were examined with the Student's t-test at a confidence level of 95%. Ratios of larger than a value of unity indicated a positive effect. The effects are illustrated in FIG. 5.

[6] = tested on: mealworm larvae; assay: Mealworm larva paralytic bioassay; type: in vivo; details: for larvae paralyzed: 20 nmole/100 mg mass; for paralysis in the mealworm larva model: molar equivalent doses (20 nanomole/100 mg larva)
Source text: To show this, the mealworm larva paralytic bioassay reported previously (U.S. Pat. No. 7,119,168) was used. Animals from a mealworm colony were arbitrarily selected and placed in groups (treatment and control). The animals were weighed to allow calculation of equivalent doses. The treatment was with either SorC13 or SorC27 dissolved in buffered insect Ringer's solution. The control was injection was an equivalent volume of insect Ringer's (NaCl; 10.40 g; KCl, 0.32 g; CaCl2, 0.48 g; NaHCO3, 0.32 g dissolved in 1 L of Millipore sterile water, pH 7.4). Peptide formulations were: SorC27 solutions, prepared at 1.0 mg/100 uL insect Ringer's (10 ug/uL, […], MW=2957); and SorC13, prepared at 0.5 mg/100 uL (5 ug/uL, […], MW=1566). The doses were 50 ug SorC27 per 100 mg of animal mass and 25 ug SorC13 per 100 mg of animal mass. Peptide solutions and control saline were injected dorsally at the fourth segment from the head, just under the integumen. Animals were gently ‘tail tweaked’ with forceps to trigger the escape reflex reaction and scored on time-to-effect, duration of effect and intensity of effect.

[7] = tested on: MV-4-11; assay: Apoptosis and cell viability in AML cell line (Example 13); type: cell-based, human; details: 0, 10 and 100 uM, 5 to 7 days
Description: For this work, the concentrations of SorC13 and SorC27 used are 0 uM, 10 uM and 100 uM. The experiments extend over a 5 to 7 day period. All measurements are done in quadruplicate with both a blank (no cells) and control (vehicle, no peptide) used to correct the test measurements. The time-response data, and the dose-response data are plotted as means±standard error of the mean.
The cell line MV-4-11 (from ATCC […]) is grown under the recommended conditions and in culture media recommended by ATCC. The cell lines were cultured under sterile conditions at 37° C., in a humidified 5% CO2 atmosphere.
Induction of apoptosis and attendant decrease is observed in cell viability in the cancer cell lines. From the large increases in the activities of the caspase3/7 activity, it is clear that there is a time dependent effect and a dose dependent effect on the induction of apoptosis.

Sequence: KEFLHPSKVDLPR [SorC13, KEFLHPSKVDLPR]
- Physiol. effects in vivo (mealworm larvae); 5 mg/kg [1]: Not paralytic
- Apoptosis Index (1 = no effect) ([2]; SorC13 100 uM): 1.0
- Decline in cell viability ([2]; SorC13 100 uM): −
- Apoptosis Index (1 = no effect) ([3]; SorC13 100 uM): 1.0
- Decline in cell viability ([3]; SorC13 100 uM): −
- Apoptosis Index (1 = no effect) ([4]; SorC13 1 uM): 2.7
- Apoptosis Index (1 = no effect) ([4]; SorC13 10 uM): 3.3
- Apoptosis Index (1 = no effect) ([4]; SorC13 100 uM): 2.7
- apoptosis (treatment:control ratio) compared with CAT cocktail ([5]; CAT = 10 uM Paclitaxel, 20 mM carboplatin): produced earlier and more intense apoptosis cascade than the CAT cocktail
- larvae paralyzed ([6]; time 0 min): 0/4
- larvae paralyzed ([6]; time 2 min): 0/4
- larvae paralyzed ([6]; time 30 min): 0/4
- paralysis in the mealworm larva model [6]: no evidence of paralysis
- induction of apoptosis and cell viability [7]: induces apoptosis and decreases cell viability

Sequence: EGKLSSNDTEGGLCKEFLHPSKVDLPR [SorC27]
- Physiol. effects in vivo (mealworm larvae); 5 mg/kg [1]: Not paralytic
- Apoptosis Index (1 = no effect) ([2]; SorC27 100 μM): 1.0
- Decline in cell viability ([2]; SorC27 100 μM): −
- Apoptosis Index (1 = no effect) ([3]; SorC27 100 μM): 1.0
- Decline in cell viability ([3]; SorC27 100 μM): −
- Apoptosis Index (1 = no effect) ([4]; Day 3, SorC27 10 μM): 1.1
- Apoptosis Index (1 = no effect) ([4]; Day 3, SorC27 100 μM): 1.2
- Apoptosis Index (1 = no effect) ([5]; Day 2, SorC27 100 uM): 1.8
- Apoptosis Index (1 = no effect) ([5]; Day 3, SorC27 1 uM): 1.2
- Apoptosis Index (1 = no effect) ([5]; Day 3, SorC27 10 uM): 1.9
- Apoptosis Index (1 = no effect) ([5]; Day 3, SorC27 100 uM): 1.9
- Decline in cell viability ([5]; SorC27): +
- larvae paralyzed ([6]; time 0 min): 0/4
- larvae paralyzed ([6]; time 2 min): 0/4
- larvae paralyzed ([6]; time 30 min): 0/4
- paralysis in the mealworm larva model [6]: no evidence of paralysis
- induction of apoptosis and cell viability [7]: induces apoptosis and decreases cell viability

— patent US10058587B2, “Peptide composition for cancer treatment by inhibiting TRPV6 calcium channel activity” (priority 2008, dated 2018)
